According to patent US7566712B2, “Biaryl piperazinyl-pyridine analogues” (Neurogen Corporation, priority 2003, dated 2009):

target: T1, human capsaicin receptor (Homo sapiens, UniProt Q8NER1); assay: Calcium mobilization assay, determination of antagonist activity (Example 6); assay type: cell-based; conditions: determined as described in Example 6 (calcium mobilization, antagonist activity); Table II
T1 construct: pBK-CMV expression construct encoding the full length human capsaicin receptor; expressed in transfected cells
T1 sequence (Q8NER1 whole entry): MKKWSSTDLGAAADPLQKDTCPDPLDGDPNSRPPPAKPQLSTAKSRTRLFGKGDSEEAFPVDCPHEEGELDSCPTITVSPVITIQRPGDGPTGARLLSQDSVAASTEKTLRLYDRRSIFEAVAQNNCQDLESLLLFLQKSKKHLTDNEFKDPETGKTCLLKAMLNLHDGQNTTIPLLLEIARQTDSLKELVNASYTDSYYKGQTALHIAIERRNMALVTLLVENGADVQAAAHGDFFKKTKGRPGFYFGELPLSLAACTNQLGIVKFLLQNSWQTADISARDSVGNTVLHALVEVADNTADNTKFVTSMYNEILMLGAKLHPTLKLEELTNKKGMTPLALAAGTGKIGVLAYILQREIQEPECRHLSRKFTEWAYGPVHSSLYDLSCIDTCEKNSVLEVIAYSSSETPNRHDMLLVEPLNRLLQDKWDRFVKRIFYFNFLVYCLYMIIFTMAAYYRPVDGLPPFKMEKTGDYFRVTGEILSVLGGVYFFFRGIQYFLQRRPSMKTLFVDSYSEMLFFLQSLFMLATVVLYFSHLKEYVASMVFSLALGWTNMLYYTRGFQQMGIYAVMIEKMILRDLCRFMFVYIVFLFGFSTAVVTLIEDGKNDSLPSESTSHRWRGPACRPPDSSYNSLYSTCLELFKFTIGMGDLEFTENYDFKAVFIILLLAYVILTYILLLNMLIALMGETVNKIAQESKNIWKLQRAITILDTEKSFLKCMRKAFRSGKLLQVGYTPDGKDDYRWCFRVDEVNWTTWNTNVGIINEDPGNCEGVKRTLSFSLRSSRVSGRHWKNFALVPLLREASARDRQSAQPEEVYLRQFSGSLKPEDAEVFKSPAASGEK
How it was run: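 Antagonism measured as inhibition of capsaicin-evoked (final concentration = EC50, from an 8-point 1 nM–3 μM curve) Fluo-3 calcium signal in stable hVR1-HEK293 cells. Test compounds at 1–5 μM final, 0.5–6 h dark preincubation at room temperature. IC50 = concentration giving 50% reduction versus agonist-only response.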

IC50, ≤ 1 µM:
Cc1cccnc1-c1nc(-c2ccc(F)c(Cl)c2)cc(N2CCN(c3ncccc3C(F)(F)F)CC2)n1 [Example 616, 4-(3-chloro-4-fluorophenyl)-2-(3-methylpyridin-2-yl)-6-{4-[3-(trifluoromethyl)pyridin-2-yl]piperazin-1-yl}pyrimidine]
Fc1ccc(-c2cc(N3CCN(c4ncccc4C(F)(F)F)CC3)nc(-c3ccncc3)n2)cc1Cl [Example 617, 4-(3-chloro-4-fluorophenyl)-2-pyridin-4-yl-6-{4-[3-(trifluoromethyl)pyridin-2-yl]piperazin-1-yl}pyrimidine]
CC(C)c1nccn1-c1nc(-c2cccc(Cl)c2)cc(N2CCN(c3ncccc3C(F)(F)F)CC2)n1 [Example 618, 4-(3-chlorophenyl)-2-(2-isopropyl-1H-imidazol-1-yl)-6-{4-[3-(trifluoromethyl)pyridin-2-yl]piperazin-1-yl}pyrimidine]
CN(CC(=O)O)c1nc(-c2ccc(F)c(Cl)c2)cc(N2CCN(c3ncccc3C(F)(F)F)CC2)n1 [Example 619, N-(4-(3-chloro-4-fluorophenyl)-6-{4-[3-(trifluoromethyl)pyridin-2-yl]piperazin-1-yl}pyrimidin-2-yl)-N-methylglycine]
C[C@H](Nc1nc(-c2ccc(F)c(Cl)c2)cc(N2CCN(c3ncccc3C(F)(F)F)CC2)n1)C(=O)O [Example 620, N-(4-(3-chloro-4-fluorophenyl)-6-{4-[3-(trifluoromethyl)pyridin-2-yl]piperazin-1-yl}pyrimidin-2-yl)alanine]
CCN1CCN(c2nc(-c3ccc(F)c(Cl)c3)cc(N3CCN(c4ncccc4C(F)(F)F)CC3)n2)CC1 [Example 623, 4-(3-chloro-4-fluorophenyl)-2-(4-ethylpiperazin-1-yl)-6-{4-[3-(trifluoromethyl)pyridin-2-yl]piperazin-1-yl}pyrimidine]
Fc1ccc(-c2cc(N3CCN(c4ncccc4C(F)(F)F)CC3)nc(N3CCN(CC4CC4)CC3)n2)cc1Cl [Example 624, 4-(3-chloro-4-fluorophenyl)-2-[4-(cyclopropylmethyl)piperazin-1-yl]-6-{4-[3-(trifluoromethyl)pyridin-2-yl]piperazin-1-yl}pyrimidine]
CC(=O)N1CCN(c2nc(-c3ccc(F)c(Cl)c3)cc(N3CCN(c4ncccc4C(F)(F)F)CC3)n2)CC1 [Example 625, 2-(4-acetylpiperazin-1-yl)-4-(3-chloro-4-fluorophenyl)-6-{4-[3-(trifluoromethyl)pyridin-2-yl]piperazin-1-yl}pyrimidine]
CCC(=O)N1CCN(c2nc(-c3ccc(F)c(Cl)c3)cc(N3CCN(c4ncccc4C(F)(F)F)CC3)n2)CC1 [Example 626, 4-(3-chloro-4-fluorophenyl)-2-(4-propionylpiperazin-1-yl)-6-{4-[3-(trifluoromethyl)pyridin-2-yl]piperazin-1-yl}pyrimidine]
C[C@@H]1CN(c2nc(-c3ccc(F)c(Cl)c3)cc(N3CCN(c4ncccc4C(F)(F)F)CC3)n2)[C@@H](C)CN1 [Example 627, 4-(3-chloro-4-fluorophenyl)-2-[(2S,5R)-2,5-dimethylpiperazin-1-yl]-6-{4-[3-(trifluoromethyl)pyridin-2-yl]piperazin-1-yl}pyrimidine]
C[C@@H]1CN(c2nc(-c3ccc(F)c(Cl)c3)cc(N3CCN(c4ncccc4C(F)(F)F)CC3)n2)[C@@H](C)CN1C [Example 628, 4-(3-chloro-4-fluorophenyl)-6-{4-[3-(trifluoromethyl)pyridin-2-yl]piperazin-1-yl}-2-[(2S,5R)-2,4,5-trimethylpiperazin-1-yl]pyrimidine]
CC1CNCCN1c1nc(-c2ccc(F)c(Cl)c2)cc(N2CCN(c3ncccc3C(F)(F)F)CC2)n1 (stereo not shown) [Example 629, 4-(3-chloro-4-fluorophenyl)-2-(2-methylpiperazin-1-yl)-6-{4-[3-(trifluoromethyl)pyridin-2-yl]piperazin-1-yl}pyrimidine]
CC1CN(C)CCN1c1nc(-c2ccc(F)c(Cl)c2)cc(N2CCN(c3ncccc3C(F)(F)F)CC2)n1 (stereo not shown) [Example 630, 4-(3-chloro-4-fluorophenyl)-2-(2,4-dimethylpiperazin-1-yl)-6-{4-[3-(trifluoromethyl)pyridin-2-yl]piperazin-1-yl}pyrimidine]
Cc1cncc(-c2cc(N3CCN(c4ncccc4C(F)(F)F)CC3)nc(N3CCOCC3)n2)c1 [Example 631, 4-(4-(5-methylpyridin-3-yl)-6-{4-[3-(trifluoromethyl)pyridin-2-yl]piperazin-1-yl}pyrimidin-2-yl)morpholine]
CC1CN(c2cc(-c3ccc(F)c(Cl)c3)nc(N3CCOCC3)n2)CCN1c1ccccn1 (stereo not shown) [Example 632, 4-[4-(3-chloro-4-fluorophenyl)-6-(3-methyl-4-pyridin-2-ylpiperazin-1-yl)pyrimidin-2-yl]morpholine]
CCc1nccn1-c1nc(-c2cccc(Cl)c2)cc(N2CCN(c3ncccc3C(F)(F)F)CC2)n1 [Example 633, 4-(3-chlorophenyl)-2-(2-ethyl-1H-imidazol-1-yl)-6-{4-[3-(trifluoromethyl)pyridin-2-yl]peperazin-1-yl}pyrimidine]
CC1CN(c2nc(-c3ccc(F)c(Cl)c3)cc(N3CCN(c4ncccc4C(F)(F)F)CC3)n2)CCN1C (stereo not shown) [Example 634, 4-(3-chloro-4-fluorophenyl)-2-(3,4-dimethylpiperazin-1-yl)-6-{4-[3-(trifluoromethyl)pyridin-2-yl]piperazin-1-yl}pyrimidine]
Fc1ccc(-c2cc(N3CCN(c4ncccc4C(F)(F)F)CC3)nc(-c3ncco3)n2)cc1Cl [Example 635, 4-(3-chloro-4-fluorophenyl)-2-(1,3-oxazol-2-yl)-6-{4-[3-(trifluoromethyl)pyridin-2-yl]piperazin-1-yl}pyrimidine]
CC1(C)CN(c2nc(-c3ccc(F)c(Cl)c3)cc(N3CCN(c4ncccc4C(F)(F)F)CC3)n2)CCO1 [Example 636, 4-(4-(3-chloro-4-fluorophenyl)-6-{4-[3-(trifluoromethyl)pyridin-2-yl]piperazin-1-yl}pyrimidin-2-yl)-2,2-dimethylmorpholine]
Cc1cn(-c2nc(-c3cccc(Cl)c3)cc(N3CCN(c4ncccc4C(F)(F)F)CC3)n2)c(C)n1 [Example 637, 4-(3-chlorophenyl)-2-(2,4-dimethyl-1H-imidazol-1-yl)-6-(4-[3-(trifluoromethyl)pyridin-2-yl]piperazin-1-yl}pyrimidine]
Cc1cc(-c2cc(N3CCN(c4ncccc4C(F)(F)F)CC3)nc(Cl)n2)ccc1F [Example 638, 2-chloro-4-(4-fluoro-3-methylphenyl)-6-{4-[3-(trifluoromethyl)pyridin-2-yl]piperazin-1-yl}pyrimidine]
CNc1nc(-c2ccc(F)c(Cl)c2)cc(N2CCN(c3ncccc3C(F)(F)F)CC2)n1 [Example 639, 4-(3-chloro-4-fluorophenyl)-N-methyl-6-{4-[3-(trifluoromethyl)pyridin-2-yl]piperazin-1-yl}pyrimidin-2-amine]
Cc1cc(-c2cc(N3CCN(c4ncccc4C(F)(F)F)CC3)nc(N(C)C(C)C)n2)ccc1F [Example 640, 4-(4-fluoro-3-methylphenyl)-N-isopropyl-N-methyl-6-{4-[3-(trifluoromethyl)pyridin-2-yl]piperazin-1-yl}pyrimidin-2-amine]
Cc1cc(-c2cc(N3CCN(c4ncccc4C(F)(F)F)CC3)nc(N3CCNC(C)C3)n2)ccc1F (stereo not shown) [Example 641, 4-(4-fluoro-3-methylphenyl)-2-(3-methylpiperazin-1-yl)-6-{4-[3-(trifluoromethyl)pyridin-2-yl]piperazin-1-yl}pyrimidine]
Cc1cc(-c2cc(N3CCN(c4ncccc4C(F)(F)F)CC3)nc(N3CCCCC3C)n2)ccc1F (stereo not shown) [Example 642, 4-(4-fluoro-3-methylphenyl)-2-(2-methylpiperidin-1-yl)-6-{4-[3-(trifluoromethyl)pyridin-2-yl]piperazin-1-yl}pyrimidine]
Cc1cc(-c2cc(N3CCN(c4ncccc4C(F)(F)F)CC3)nc(N3CCN(C(=O)OC(C)(C)C)CC3)n2)ccc1F [Example 643, tert-butyl 4-(4-(4-fluoro-3-methylphenyl)-6-{4-[3-(trifluoromethyl)pyridin-2-yl]piperazin-1-yl}pyrimidin-2-yl)piperazine-1-carboxylate]
CC(C)N(CCO)c1nc(-c2ccc(F)c(Cl)c2)cc(N2CCN(c3ncccc3C(F)(F)F)CC2)n1 [Example 644, 2-[(4-(3-chloro-4-fluorophenyl)-6-{4-[3-(trifluoromethyl)pyridin-2-yl]piperazin-1-yl}pyrimidin-2-yl)(isopropyl)amino]ethanol]
Cc1cc(-c2cc(N3CCN(c4ncccc4C(F)(F)F)CC3)nc(N3CCNCC3)n2)ccc1F [Example 645, 4-(4-fluoro-3-methylphenyl)-2-piperazin-1-yl-6-{4-[3-(trifluoromethyl)pyridin-2-yl]piperazin-1-yl}pyrimidine]
Cc1cccnc1N1CCN(c2cc(-c3ccc(F)c(Cl)c3)nc(N3CCOCC3)n2)CC1C (stereo not shown) [Example 646, 4-{4-(3-chloro-4-fluorophenyi)-6-[3-methyl-4-(3-methylpyridin-2-yl)piperazin-1-yl]pyrimidin-2-yl}morpholine]
CCc1nc(C)cn1-c1nc(-c2cccc(Cl)c2)cc(N2CCN(c3ncccc3C(F)(F)F)CC2)n1 [Example 647, 4-(3-chlorophenyl)-2-(2-ethyl-4-methyl-1H-imidazol-1-yl)-6-(4-[3-(trifluoromethyl)pyridin-2-yl]piperazin-1-yl}pyrimidine]
CCc1nccn1-c1nc(-c2ccc(F)c(Cl)c2)cc(N2CCN(c3ncccc3C(F)(F)F)CC2)n1 [Example 648, 4-(3-chloro-4-fluorophenyl)-2-(2-ethyl-1H-imidazol-1-yl)-6-{4-[3-(trifluoromethyl)pyridin-2-yl]piperazin-1-yl}pyrimidine]
